Source: PMC5716539, “The acute glucose lowering effect of specific GPR120 activation in mice is mainly driven by glucagon-like peptide 1” (PLoS ONE, 2017)
Read-outs that look alike come from different tables or passages of the source.

What was measured:
lean female mice = assay: Intravenous glucose tolerance test (IVGTT) in lean female mice; assay type: in vivo, mouse; conditions: 30 nmol/kg i.p. 15 min prior to IVGTT; trend towards lower response
Description: Lean female mice (body weight 20–25 g), were randomized on body weight and fasted 4 hours prior to the IVGTT. Metabolex-36 (100 mg/kg) was administered orally 60 min and AZ13581837 (35mg/kg) 30 min before the IVGTT ([…]). Control mice were given vehicle (0.5% HPMC, 0.1% Tween-80) at corresponding time points. The specificity of AZ13581837 was examined in IVGTT in GPR120 null mice. GPR120 agonist doses were selected to reach plasma levels of at least 10 times over the in vitro EC50 value to achieve maximal activation of GPR120 (S2 Appendix). Thirty minutes prior to the glucose load, the mice were anaesthetised (20 mg/kg fluanisone/0.8 mg/kg fentanyl (Hypnorm®, Janssen, Beerse, Belgium) and 10 mg/kg midazolam (Dormicum®, Hoffman-LaRoche, Basel, Switzerland)) to allow for rapid blood sampling. The mice were kept at a heating pad to maintain body temperature.
In separate experiments, mice were pretreated with the GLP-1 receptor antagonist exendin 9–39 (30 nmol/kg, Bachem; intraperitoneally) alone or in combination with the GPR120 agonists, 15 min prior to the IVGTT. Insulin and glucose were measured 0, 1, 5, 10, 20 and 40 min after intravenous (iv) glucose administration. In separate groups of mice total GLP-1 levels were measured 60 min after oral administration of Metabolex-36 or 30 min after AZ13581837 and in corresponding vehicle (0.5% HPMC, 0.1% Tween-80) dosed mice. Blood samples were collected in EDTA coated tubes, centrifuged at 10000xg for 4 min, and plasma was separated and stored frozen until analyzed.
In the IVGTT, the acute insulin response (AIR) was calculated as the mean of suprabasal 1 and 5 min values, and the glucose elimination was quantified using the glucose elimination constant (KG) calculated as the slope of the logarithmic transformation of circulating glucose between 1 and 20 min after the glucose bolus. Multiple comparisons between the different groups were performed by one-way ANOVA. Tukey’s or Bonferroni’s post hoc test were used to calculate statistical differences between the groups. Significant statistical difference was considered at p<0.05. Data are presented as mean ± SEM.

Caco-2 cells = system: Caco-2 cells; parameters: method as in PMID 26791484; conditions: cited from earlier work
mouse GPR40 = molecular target: T1, mouse GPR40 (Mus musculus, UniProt Q76JU9); assay: Calcium mobilization assay in HEK293-mGPR40 cells; assay type: cell-based; conditions: calcium mobilization
T1 construct: expressed in transfected cells
Description: CHO-hGPR120 and CHO cells were cultured in DMEM/F-12 (Invitrogen) with 10% FBS (Sigma) and HEK293-mGPR40 in DMEM (Invitrogen) supplemented with 10% FBS in 384-well poly-D-Lysin coated microplates (Greiner) at 37°C, 95% humidity and 5% CO2. After 19 hours cell media was replaced with Calcium4 dye (Molecular Devices) in HBSS (Invitrogen), 20 mM HEPES (Invitrogen), pH 7.4 and 1.25 mM Probenecid (Sigma). After 1 hour at room temperature agonists were added and calcium mobilization was detected as change in fluorescence (λex = 488 and λem = 540 nm) using a FLIPR^TETRA (Molecular Devices).

[1] = system: islets from GPR120 null mice; assay: cAMP production in dispersed islet cells from GPR120 null mice; assay type: cell-based, mouse; conditions: 50 nM Exendin-4
Description: (§1) Mouse islets were isolated from pancreas by collagenase digestion, handpicked under microscope following multiple washing steps and dispersed to single cells using TrypLE Express (Gibco). The dispersed islet cells (20 000 cells/well) were incubated with the GPR120 agonists for 30 min in 96-well black plates (Corning) at 37°C in Krebs ringer phosphate Hepes buffer, pH 7.4, with 11 mM Glucose, 0.1% BSA and 0.5 mM 3-isobutyl-1-methylxanthine followed by addition of d2-labeled cAMP and anti-cAMP Cryptate in conjugation and lysis buffer (Cisbio). Produced cAMP was detected with homogenous time resolved fluorescence (HTRF) (λex = 340 nm, λem = 665 and 615 nm) using a Pherastar (BMG Labtech).

[2] = system: dispersed wt mouse islets cell; assay: cAMP production in dispersed wild type mouse islet cells; assay type: cell-based; conditions: 50 nM Exendin-4
Description: as §1

GPR120 [3] = system: GPR120; parameters: method as in PMID 24997608; conditions: read-out: EC50 in β-arrestin; cited from earlier work
GPR120 [4] = system: GPR120; parameters: method as in PMID 24997608; conditions: read-out: EC50 in calcium mobilization; cited from earlier work

T1 sequence (Q76JU9 whole entry): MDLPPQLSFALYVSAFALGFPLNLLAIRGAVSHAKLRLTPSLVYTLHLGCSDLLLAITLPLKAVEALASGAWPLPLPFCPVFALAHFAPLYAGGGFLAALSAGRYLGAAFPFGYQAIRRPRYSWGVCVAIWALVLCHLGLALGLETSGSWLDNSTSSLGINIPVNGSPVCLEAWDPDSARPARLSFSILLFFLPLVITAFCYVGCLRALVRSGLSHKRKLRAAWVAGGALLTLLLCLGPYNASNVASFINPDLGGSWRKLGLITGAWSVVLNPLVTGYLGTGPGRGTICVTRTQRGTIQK

Exendin 9–39
Insulin secretion, exendin 9–39 alone (lean female mice): no significant effect

O=C(O)CCc1ccc(NCc2cccc(Oc3ccccc3)c2)cc1 [GW9508]
β-arrestin-2 recruitment in Caco-2 cells (Caco-2 cells): recruited β-arrestin-2
EC50 (mouse GPR40): 900 ± 300 nM

Exendin-4
cAMP production in islet cells from GPR120 null mice (positive control) [1]: significantly stimulate cAMP production
cAMP production in islet cells from wt mice (positive control) [2]: significantly stimulate cAMP production
